Data from patent US8492342B2, “Preprocalcitonin antigen T epitopes” (Institut Gustave Roussy, priority 2007, dated 2013).

Columns and labels:
Assay type in all cases: cell-based, human
[1] = test system: IGR-Heu tumor cells; experiment: Proteasome inhibition: CTL recognition (TNFβ release) of inhibitor-treated IGR-Heu tumor cells; settings: 10 μM, FIG. 4A
Experimental: FIG. 4: Processing of the preprocalcitonin16-25 peptide is proteasome- and TAP-independent. A. IGR-Heu target cells were incubated for 2 h at 37° C. in the presence or absence of the proteasome-specific inhibitor epoxomicin, and then Heu161 cells were added. The autologous Heu127 clone, recognizing on IGR-Heu a proteasome-dependent mutated α-actinin-4 peptide, was included as a positive control. TNFβ released in medium after 24 h of culture was measured as above. B. 293-EBNA cells were cotransfected with pCEP4 containing either cDNA 150 (upper panel) or the mutated α-actinin-4 cDNA (lower panel), with pcDNA3.1 containing an HLA-A*0201 construct, and with various amounts of vector pBJi-neo containing IPC47 cDNA. CTL clones Heu161 (upper panel) or Heu127 (lower panel) were then added. Controls included 293-EBNA cells transfected with HLA-A2 or pBJi-neo-IPC47 alone, and incubation of transfectants with either preprocalcitonin or α-actinin-4 peptides. Data shown are representative of four independent experiments.
(§1) TNFβ was detected by measuring the cytotoxicity of the culture medium on TNF-sensitive WEHI-164c13 cells with a MTT colorimetric assay (ESPEVIK & NISSEN-MEYER, J Immunol Methods, 95, 99-105, 1986).
For proteasomes and SP inhibition, 10^6 tumor cells were resuspended in 300 μl of media in the presence or absence of specific inhibitors. […]

[2] = test system: CTL clone Heu161; experiment: Lytic activity of CTL clone on peptide-pulsed 51Cr-labeled Heu-EBV-B cells; settings: E/T 10:1, 4 h chromium release, FIG. 3B
Experimental: (§2) FIG. 3: Identification of the antigenic peptide recognized by CTL clone Heu161. A. CTL stimulation with purified synthetic peptides. Peptides were loaded on allogeneic HLA-A2^+ MZ2-MEL.3.1 melanoma cells for 60 min at room temperature before addition of CTL clone Heu161. TNF release was measured 16 h later. Empty circles represent the results obtained with peptide SEQ ID NO: 1, full circles represent the results obtained with peptide SEQ ID NO: 2, empty squares represent the results obtained with peptide SEQ ID NO: 24, full squares represent the results obtained with peptide SEQ ID NO: 25 and empty diamonds represent the results obtained with peptide SEQ ID NO: 26. B. Lytic activity of CTL clone on peptide-pulsed cells. ^51Cr-labeled Heu-EBV-B cells were incubated over 60 min with the indicated concentrations of peptides before addition of CTL clone Heu161 at an E/T cell ratio of 10:1. Chromium release was measured after 4 h. Empty circles represent the results obtained with peptide SEQ ID NO: 1, full circles represent the results obtained with peptide SEQ ID NO: 2
Cytotoxic activity was measured by a conventional 4-h ^51Cr-release assay using triplicate cultures in round-bottomed 96-well plates. Percent specific cytotoxicity was calculated conventionally; SD were <5%. […]

[3] = test system: CTL clone Heu161; experiment: CTL stimulation (TNF release) by synthetic peptides loaded on HLA-A2+ MZ2-MEL.3.1 melanoma cells
Experimental: as §2, §1
We then prepared a series of calcitonin cDNA fragments truncated at their 5′ end and engineered to contain an initiation codon and a Kozak consensus sequence. […] Further trimming narrowed down the peptide-encoding region to residues 9-38 (FIG. 2B). Among a set of overlapping peptides covering this region, only two were recognized by CTL clone Heu161: VLLQAGSLHA (SEQ ID NO: 1) and LVLLQAGSLHA (SEQ ID NO: 2), which are identical, but with an additional leucine in the latter peptide. […] In a lysis assay, the decamer was slightly more efficient than the 11-mer peptide by a factor of about three (FIG. 3B). We concluded that the optimal antigenic peptide recognized by CTL clone Heu161 was VLLQAGSLHA (SEQ ID NO: 1) or preprocalcitonin16-25. This peptide corresponds exactly to the C-terminal part of the preprocalcitonin signal peptide (LE MOULLEC et al., FEBS Lett, 167, 93-7, 1984).

Row | Compound | effect on recognition by anti-preprocalcitonin CTL clone Heu161 [1] | efficiency in lysis assay, decamer relative to 11-mer (factor) [2] | EC50 ([3]; HLA-A2+ melanoma cells loaded 60 min, TNF release after 16 h, FIG. 3A, read-out: peptide concentration giving half-maximal effect (sensitization to recognition by CTL Heu161)) | recognition of peptide by CTL clone Heu161 ([3]; overlapping synthetic peptides of preprocalcitonin)
1 | CC[C@H](C)[C@H](NC(=O)[C@H]([C@@H](C)CC)N(C)C(C)=O)C(=O)N[C@H](C(=O)N[C@@H](CC(C)C)C(=O)[C@@]1(C)CO1)[C@@H](C)O [epoxomicin] | no effect |  |  | 
2 | VLLQAGSLHA [SEQ ID NO: 1, optimal antigenic peptide recognized by CTL clone Heu161, C-terminal part of the preprocalcitonin signal peptide] |  | about three | ~10 nM | recognized
